Experimental data reported in patent US20100119454A1, “Use of the conserved Drosophila NPFR1 system for uncovering interacting genes and pathways important in nociception and stress response” (priority 2008, published 2010).

Tested on: Drosophila adult flies
Assay: Two-choice preference test of adult flies (BITC)
Type: in vivo, Drosophila melanogaster
Settings: 0.4 mM BITC, 2-day old control flies
Protocol: The two-choice preference test was based on a published procedure with some modifications (Al-Anzi et al., 2006), which is hereby incorporated by reference herein in its entirety. 2-day-old males withheld from food for 24 hr were presented with a 48-well plate containing two-colored food media in the alternating well rows. They contain 1% agar/10% fructose with 0.4 mM benzyl-isothiocyanate (BITC) in 75% ethanol or ethanol only. In each assay, 90-100 flies per line were tested in the dark. A preference index was defined as the fraction of […] choosing the BITC medium, minus the fraction of […] choosing the BITC-free medium. […] At least three trials were done for each line.

S=C=NCc1ccccc1 [BITC, benzyl-isothiocyanate]
food choice of adult flies: mostly avoided
